The values below come from patent publication US8747901B2 (Reata Pharmaceuticals, Inc., priority 2009, dated 2014).

Each structure is given as a SMILES string.

For this series the following is noted: human, in vivo. Here is the method: The synthetic triterpenoid bardoxolone methyl, also known as CDDO-Me and as “RTA 402,” has shown potent anti-inflammatory and anti-tumor properties in preclinical studies and in human clinical trials. […] In these studies bardoxolone methyl was administered orally in a crystalline form (“Form A”), once daily, at a variety of doses.

Turning to `COC(=O)[C@]12CCC(C)(C)C[C@H]1[C@H]1C(=O)C=C3[C@@]4(C)C=C(C#N)C(=O)C(C)(C)[C@@H]4CC[C@@]3(C)[C@]1(C)CC2` [Form A bardoxolone methyl, bardoxolone methyl], the oral bioavailability entry is listed as “relatively low oral bioavailability”. For the same compound, where the note is “po”, the tolerability profile result is reported as “excellent tolerability profile with very few drug-related side effects”.
